# US8956642B2, “Bupivacaine formulation in a polyorthoester carrier” (Medtronic, Inc., priority 2008, dated 2015)
# Tests used:
# [1] = tested on: normal bladder activity (frequency of reflex bladder contractions); assay: Epidural infusion of bupivacaine in rats, intravesical saline infusion (normal bladder activity, cystometrogram); assay type: in vivo, rat; conditions: epidural infusion 25 μg/day, saline infusion into bladder
# Procedure: (§1) FIG. 5 is a graphic representation of epidural infusion of bupivacaine in rats treated with an intravesical infusion of saline. Baseline bladder activity was measured before epidural drug treatment as described in Example 4. The columns and error bars represent the mean and SEM values of 10 rats per group. Asterisks indicate statistically significant dose effects compared to baseline as determined by post-hoc Dunnett Multiple Comparison Test.
# (§2) An animal model that has been used frequently to study pelvic pain conditions is a rat model of bladder pain. In this model, a female rat was lightly anesthetized with isoflurane and a transurethral catheter was placed into the bladder. The catheter was connected to a pressure transducer so that the pressure within the bladder could be continuously monitored and recorded over time. Fluid was continuously infused into the bladder using a syringe pump at a rate of 0.1 mL/min to cause the bladder to contract repeatedly each time it became full. This is referred to as a volume-evoked micturition reflex or contraction. A repeated series of bladder contractions (pressure spikes) over time was collected using this method. To mimic normal bladder activity, 0.9% saline was infused into the bladder; to mimic painful bladder activity, a dilute solution of acetic acid (0.5%) was infused into the bladder. […]
# [2] = tested on: acetic acid induced bladder hypermotility (frequency of bladder contraction reflexes); assay: Epidural infusion of bupivacaine in rat model of bladder pain, intravesical acetic acid infusion; assay type: in vivo; conditions: epidural infusion 25 μg/day
# Procedure: as §1, with “6” for “5”, “acetic acid as described in Example 4.” for “saline.”, “treatment.” for “treatment as described in Example 4.”
# as §2, with “contraction.” for “contraction. A repeated series of bladder contractions (pressure spikes) over time was collected using this method. To mimic normal bladder activity, 0.9% saline was infused into the bladder; to mimic painful bladder activity, a dilute solution of acetic acid (0.5%) was infused into the bladder.”
# In order to evaluate the effects of epidurally administered analgesics on normal and painful bladder activity (frequency of reflex bladder contractions), test drugs were continuously administered via an epidural catheter with the tip placed in the mid-lumbar epidural space. […] In the experiments depicted in FIGS. 5 and 6, the baseline bladder activity was measured before implanting the epidural infusion system, the infusion system was implanted on day 0 and cystometrograms were recorded on three consecutive days during which bupivacaine (25 μg/day) was infused into the lumbar epidural space.
# Bupivacaine at 25 μg/day reduced acetic acid induced bladder hypermotility by approximately 3 fold on days 2 and 3. The frequency of bladder contraction observed during acetic acid infusion and epidural bupivacaine administration was similar to the baseline bladder activity measured during saline infusion (0.206±0.046 day 3 acetic acid and epidural bupivacaine vs 0.295±0.035 baseline saline).
smiles,measurement,setting,value
"CCCCN1CCCCC1C(=O)Nc1c(C)cccc1C (centres unmarked) [bupivacaine, 1-butyl-N-(2,6-dimethylphenyl)piperidine-2-carboxamide]",effects on normal bladder activity measured during saline infusion,"[1]; day 1, vs baseline",minimal effects
same,contraction rate relative to the baseline reflex contraction rate,[1]; days two and three,statistically significant reductions
same,frequency of bladder contraction reflexes vs baseline,"[2]; 0.5% acetic acid infusion into bladder, all three days",significantly reduced
same,frequency of bladder contraction,"[2]; acetic acid infusion, day 3, mean ± SEM",0.206±0.046 reflexes per min
same,reduction of acetic acid induced bladder hypermotility,[2]; days 2 and 3,approximately 3 fold
